US20220119354A1, “DIAMINO-SUBSTITUTED PYRIDINES AND PYRIMIDINES AS HERBICIDES” (FMC Corporation, priority 2019, published 2022)

Assays:
Assay type in all cases: in vivo
[1] = tested on: barnyardgrass (Echinochloa crus-galli); assay: Test A preemergence, barnyardgrass; settings: 0 to 100 scale, 0 is no effect, 100 is complete control
How it was run: (§1)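 Using a solvent/surfactant formulation, test chemicals were sprayed onto freshly seeded soil or onto 2–10 cm seedlings at the one- to two-leaf stage. Visual injury ratings on a 0–100 scale were made about 10 d later in the greenhouse.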

[2] = tested on: kochia (Kochia scoparia); assay: Test A preemergence, kochia; settings: 0 to 100 scale, 0 is no effect, 100 is complete control
How it was run: as §1

[3] = tested on: ragweed (common ragweed, Ambrosia elatior); assay: Test A preemergence, ragweed; settings: 0 to 100 scale, 0 is no effect, 100 is complete control
How it was run: as §1

[4] = tested on: ryegrass, Italian (Lolium multiflorum); assay: Test A preemergence, Italian ryegrass; settings: 0 to 100 scale, 0 is no effect, 100 is complete control
How it was run: as §1

[5] = tested on: foxtail, giant (Setaria faberii); assay: Test A preemergence, giant foxtail; settings: 0 to 100 scale, 0 is no effect, 100 is complete control
How it was run: as §1

[6] = tested on: pigweed (Amaranthus retroflexus); assay: Test A preemergence, pigweed; settings: 0 to 100 scale, 0 is no effect, 100 is complete control
How it was run: as §1

[7] = tested on: barnyardgrass (Echinochloa crus-galli); assay: Test A postemergence, barnyardgrass; settings: 0 to 100 scale, 0 no effect, 100 complete control
How it was run: as §1

[8] = tested on: kochia (Kochia scoparia); assay: Test A postemergence, kochia; settings: 0 to 100 scale, 0 no effect, 100 complete control
How it was run: as §1

[9] = tested on: ragweed (common ragweed, Ambrosia elatior); assay: Test A postemergence, ragweed; settings: 0 to 100 scale, 0 no effect, 100 complete control
How it was run: as §1

[10] = tested on: ryegrass, Italian (Lolium multiflorum); assay: Test A postemergence, Italian ryegrass; settings: 0 to 100 scale, 0 no effect, 100 complete control
How it was run: as §1

[11] = tested on: foxtail, giant (Setaria faberii); assay: Test A postemergence, giant foxtail; settings: 0 to 100 scale, 0 no effect, 100 complete control
How it was run: as §1

[12] = tested on: pigweed (Amaranthus retroflexus); assay: Test A postemergence, pigweed; settings: 0 to 100 scale, 0 no effect, 100 complete control
How it was run: as §1

[13] = tested on: wheat (Triticum aestivum); assay: Test A postemergence, wheat; settings: 0 to 100 scale, 0 no effect, 100 complete control
How it was run: as §1

[14] = tested on: corn (Zea mays); assay: Test A postemergence, corn; settings: 0 to 100 scale, 0 no effect, 100 complete control
How it was run: as §1

[15] = tested on: blackgrass (Alopecurus myosuroides); assay: Test A postemergence, blackgrass; settings: 0 to 100 scale, 0 no effect, 100 complete control
How it was run: as §1

[16] = tested on: galium (catchweed bedstraw, Galium aparine); assay: Test A postemergence, galium; settings: 0 to 100 scale, 0 no effect, 100 complete control
How it was run: as §1

[17] = tested on: rice (Oryza sativa); assay: Test B flooded paddy test, rice; settings: Flood, 250 g ai/ha, applied to paddy water, 2-leaf stage, visual evaluation after 13 to 15 d
How it was run: (§2)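 Rating: 0 = no effect, 100 = complete control, visual, relative to untreated plants. Conditions: 2-leaf stage, 3 cm flood kept constant, compound put directly into water, 13–15 d greenhouse.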

[18] = tested on: sedge, umbrella (small-flower umbrella sedge, Cyperus difformis); assay: Test B flooded paddy test, umbrella sedge; settings: Flood, 250 g ai/ha, applied to paddy water, 2-leaf stage, visual evaluation after 13 to 15 d
How it was run: as §2

[19] = tested on: ducksalad (Heteranthera limosa); assay: Test B flooded paddy test, ducksalad; settings: Flood, 250 g ai/ha, applied to paddy water, 2-leaf stage, visual evaluation after 13 to 15 d
How it was run: as §2

[20] = tested on: barnyardgrass (Echinochloa crus-galli); assay: Test B flooded paddy test, barnyardgrass; settings: Flood, 250 g ai/ha, applied to paddy water, 2-leaf stage, visual evaluation after 13 to 15 d
How it was run: as §2

SMILES | Barnyardgrass plant response rating ([1]; 125 g ai/ha) | Barnyardgrass plant response rating ([1]; 500 g ai/ha) | Kochia plant response rating ([2]; 125 g ai/ha) | Kochia plant response rating ([2]; 500 g ai/ha) | Ragweed plant response rating ([3]; 125 g ai/ha) | Ragweed plant response rating ([3]; 500 g ai/ha) | Ryegrass, Italian plant response rating ([4]; 125 g ai/ha) | Ryegrass, Italian plant response rating ([4]; 500 g ai/ha) | Foxtail, Giant plant response rating ([5]; 125 g ai/ha) | Foxtail, Giant plant response rating ([5]; 500 g ai/ha) | Pigweed plant response rating ([6]; 125 g ai/ha) | Pigweed plant response rating ([6]; 500 g ai/ha) | Plant response rating, Barnyardgrass ([7]; 125 g ai/ha) | Plant response rating, Barnyardgrass ([7]; 500 g ai/ha) | Plant response rating, Kochia ([8]; 125 g ai/ha) | Plant response rating, Kochia ([8]; 500 g ai/ha) | Plant response rating, Ragweed ([9]; 125 g ai/ha) | Plant response rating, Ragweed ([9]; 500 g ai/ha) | Plant response rating, Ryegrass, Italian ([10]; 125 g ai/ha) | Plant response rating, Ryegrass, Italian ([10]; 500 g ai/ha) | also measured
CC[C@H](Nc1ncc(C(F)(F)F)c(N)n1)c1coc2ccccc12 [Compound 81] | 0 | 0 | 0 | 20 | 0 | 70 | 0 | 60 | 0 | 20 | 0 | 10 | 0 | 0 | 20 | 40 | 0 | 20 | 0 | 0 | Plant response rating, Foxtail, Giant ([11]; 125 g ai/ha): 0; Plant response rating, Foxtail, Giant ([11]; 500 g ai/ha): 10; Plant response rating, Pigweed ([12]; 125 g ai/ha): 0; Plant response rating, Pigweed ([12]; 500 g ai/ha): 80; Plant response rating, Wheat ([13]; 125 g ai/ha): 0; Plant response rating, Wheat ([13]; 500 g ai/ha): 0; Plant response rating, Corn ([14]; 125 g ai/ha): 0; Plant response rating, Corn ([14]; 500 g ai/ha): 0; Plant response rating, Blackgrass ([15]; 125 g ai/ha): 0; Plant response rating, Blackgrass ([15]; 500 g ai/ha): 0; Plant response rating, Galium ([16]; 125 g ai/ha): 0; Plant response rating, Galium ([16]; 500 g ai/ha): 30; Plant response rating, Rice (0 to 100 scale, 0 is no effect, 100 is complete control) [17]: 0; Plant response rating, Sedge, Umbrella (0 to 100 scale, 0 is no effect, 100 is complete control) [18]: 0; Plant response rating, Ducksalad (0 to 100 scale, 0 is no effect, 100 is complete control) [19]: 0; Plant response rating, Barnyardgrass (0 to 100 scale, 0 is no effect, 100 is complete control) [20]: 0
Nc1nc(N[C@@H](c2cc3ccccc3s2)C2CC2)ncc1C(F)(F)F [Compound 84] | 90 | 90 | 90 | 90 | 100 | 100 | 70 | 90 | 90 | 100 | 100 | 100 | 70 | 100 | 80 | 90 | 40 | 90 | 0 | 70 | Plant response rating, Foxtail, Giant ([11]; 125 g ai/ha): 50; Plant response rating, Foxtail, Giant ([11]; 500 g ai/ha): 90; Plant response rating, Pigweed ([12]; 125 g ai/ha): 100; Plant response rating, Pigweed ([12]; 500 g ai/ha): 100; Plant response rating, Wheat ([13]; 125 g ai/ha): 0; Plant response rating, Wheat ([13]; 500 g ai/ha): 0; Plant response rating, Corn ([14]; 125 g ai/ha): 0; Plant response rating, Corn ([14]; 500 g ai/ha): 0; Plant response rating, Blackgrass ([15]; 125 g ai/ha): 0; Plant response rating, Blackgrass ([15]; 500 g ai/ha): 0; Plant response rating, Galium ([16]; 125 g ai/ha): 60; Plant response rating, Galium ([16]; 500 g ai/ha): 80; Plant response rating, Rice (0 to 100 scale, 0 is no effect, 100 is complete control) [17]: 20; Plant response rating, Sedge, Umbrella (0 to 100 scale, 0 is no effect, 100 is complete control) [18]: 90; Plant response rating, Ducksalad (0 to 100 scale, 0 is no effect, 100 is complete control) [19]: 65; Plant response rating, Barnyardgrass (0 to 100 scale, 0 is no effect, 100 is complete control) [20]: 85
Cc1ccc2c(C(C)Nc3ncc(C(F)(F)F)c(N)n3)coc2c1 (stereo not drawn) [Compound 85] | 70 | 100 | 30 | 90 | 90 | 100 | 40 | 50 | 70 | 100 | 100 | 100 | 50 | 80 | 70 | 90 | 50 | 90 | 50 | 60 | Plant response rating, Foxtail, Giant ([11]; 125 g ai/ha): 40; Plant response rating, Foxtail, Giant ([11]; 500 g ai/ha): 90; Plant response rating, Pigweed ([12]; 125 g ai/ha): 90; Plant response rating, Pigweed ([12]; 500 g ai/ha): 10; Plant response rating, Wheat ([13]; 125 g ai/ha): 30; Plant response rating, Wheat ([13]; 500 g ai/ha): 30; Plant response rating, Corn ([14]; 125 g ai/ha): 10; Plant response rating, Corn ([14]; 500 g ai/ha): 40; Plant response rating, Blackgrass ([15]; 125 g ai/ha): 40; Plant response rating, Blackgrass ([15]; 500 g ai/ha): 50; Plant response rating, Galium ([16]; 125 g ai/ha): 80; Plant response rating, Galium ([16]; 500 g ai/ha): 90; Plant response rating, Rice (0 to 100 scale, 0 is no effect, 100 is complete control) [17]: 0; Plant response rating, Sedge, Umbrella (0 to 100 scale, 0 is no effect, 100 is complete control) [18]: 85; Plant response rating, Ducksalad (0 to 100 scale, 0 is no effect, 100 is complete control) [19]: 30; Plant response rating, Barnyardgrass (0 to 100 scale, 0 is no effect, 100 is complete control) [20]: 0
CC(Nc1ncc(C(F)(F)F)c(N)n1)c1cc2ccc(F)c(F)c2s1 (stereo not drawn) [Compound 86] | 70 | 90 | 80 | 100 | 100 | 100 | 20 | 70 | 70 | 100 | 100 | 100 | 40 | 50 | 70 | 90 | 20 | 80 | 0 | 50 | Plant response rating, Foxtail, Giant ([11]; 125 g ai/ha): 60; Plant response rating, Foxtail, Giant ([11]; 500 g ai/ha): 60; Plant response rating, Pigweed ([12]; 125 g ai/ha): 90; Plant response rating, Pigweed ([12]; 500 g ai/ha): 100; Plant response rating, Wheat ([13]; 125 g ai/ha): 0; Plant response rating, Wheat ([13]; 500 g ai/ha): 0; Plant response rating, Corn ([14]; 125 g ai/ha): 0; Plant response rating, Corn ([14]; 500 g ai/ha): 0; Plant response rating, Blackgrass ([15]; 125 g ai/ha): 0; Plant response rating, Blackgrass ([15]; 500 g ai/ha): 10; Plant response rating, Galium ([16]; 125 g ai/ha): 70; Plant response rating, Galium ([16]; 500 g ai/ha): 70; Plant response rating, Rice (0 to 100 scale, 0 is no effect, 100 is complete control) [17]: 0; Plant response rating, Sedge, Umbrella (0 to 100 scale, 0 is no effect, 100 is complete control) [18]: 98; Plant response rating, Ducksalad (0 to 100 scale, 0 is no effect, 100 is complete control) [19]: 75; Plant response rating, Barnyardgrass (0 to 100 scale, 0 is no effect, 100 is complete control) [20]: 60
